Laboratory results: patent publication US20070185431A1, “Galvanic Current Skin Treatment” (priority 2006, published 2007)
“Also recorded” adds a separate entry of the source.

Assays:
[1] = cited from earlier work
[2] = Franz cell skin penetration of the other compounds with and without current (Phoresor)
Source text: Thus, for a 1% theobromine solution, a Tris-glycine buffer at pH 12 was chosen. […] By putting theobromine into 0.1N NaOH at pH 12, this compound is ionized to a negative charge. No information was readily available regarding the pKa of Ergothioneine (Thiotaine) but based on its structure, it would appear to have a relatively low pKa and thus be negatively charged at pH 8.0.
For experiments, the electrodes from the Phoresor were applied to the Franz unit with the negative electrode in contact with the skin's surface and in contact with the compound solution being applied. Each compound was tested on 5 skins for skin penetration without current and 5 skins for skin penetration with current.
Note that the time=0 for the bar graphs discussed below represents the time at which the galvanic current was terminated.
A 60 microliter solution of aminophylline in PBS (pH 7.0) gelled slightly with 0.5% HEC was applied to human breast skin mounted in Franz cell chambers. A 0.4 mAmp current was applied for either 6.25 minutes (for a 2.5 mAmp×time dose) or 12.5 minutes to produce a 5 mAmp×time dose. At 6 hours samples were withdrawn for analysis and a second dose applied only to the skin receiving a 2.5 mAmp×time pulse at T=0. Samples were withdrawn for analysis at T=12 hours and again at T=24 hours.
Thus, its rate of dissociation is not going to be high in an aqueous solvent. in order to shift the equilibrium to the anion form of theobromine we prepared a 1% solution in Tris-glycine buffer adjusted to pH 12 with IN NaOH. Franz studies were then carried out using a 2.5 mAmp×time pulse.

[3] = Skin penetration of caffeine in modified Franz cells with galvanic current application device; format: in vitro ADME, human
Source text: According to one embodiment, another method and apparatus relates to a modified Franz cell instrument and method of testing iontophoresis across a cellular membrane and the effects of an electrical current on the membrane after the electrical current has been removed. […] In this embodiment, a electrical current application device 18 is operably coupled to the Franz cell via a copper wire that connects the two electrodes of the device 18 to the Franz cell. In this embodiment, the negative electrode 16 contacts the surface of the cellular membrane via a copper wafer electrode while the positive electrode 14 is placed in the lower Franz fluid reservoir 12 to complete the circuit. Alternatively, any configuration that allows for application of an electrical current to the cellular membrane placed in the Franz cell is contemplated. According to one embodiment, the apparatus as set forth in FIG. 2 can be used to test the effects of applying electrical current to a cellular membrane.
To perform this examination, three modified Franz cells—each similar to the apparatus depicted in FIG. 2—were placed in series. […] As is understood in the art, 1 milliamp equals 1,000 microamps.
To determine the effectiveness of the current application device in enhancing the penetration of caffeine through human skin, a 1% caffeine solution was prepared in saline solution at a pH of 7.2 and an infinite dose (500 micro liters) applied to the surface of human skin mounted onto Franz cell units. One set of skin samples was left untreated to serve as the control group for passive skin penetration of caffeine. A second set was treated with one 3 minute cycle of the Galvanic unit delivering 120 microamps per skin. The standard convention for expressing the current “dose” the skin receives is Current×Time. Thus, the skin in this group received 360 microamp-minutes of current (120 microamps×3 minutes). A third group of skins were treated with 3 cycles of current (1080 microamp-minutes [shown as 1.1 mA]), and the fourth group received a dose of 4.32 mAmp-minutes (12 cycles at 3 minutes/cycle delivering 120 microamps).
Samples were collected at 6, 12 and 24 hours and the amount of caffeine present in the receptor fluid determined by HPLC.

[4] = Skin penetration of caffeine in Franz cells with iontophoretic instrument, pre-selected current dose; format: in vitro ADME, human
Protocol: For the first studies, Franz cells were dosed once with either: 1) no current (control), 2) 2 mAmp-minutes, 3) 5 mAmp-minutes, or 4)10 mAmp-minutes. Samples of the Franz receptor fluid were analyzed at 6, 12 and 24 hours after the current dose.
Because a consumer might use this product morning and evening, we separated the dose treatments by 10 hours. The experimental protocol involved applying a saline solution of 1% caffeine (pH 7.2) to human skins mounted in Franz cells. The groups were: 1) control-no dosing, 2) a dose of 2.5 mAmp-minute (0.375 mAmps for 6.67 minutes) repeated at 10 hours, and 3) a single 5 mAmp-minute. All groups contained 5 replicates. For these studies, the caffeine was only applied to the skin during the dosing phase. When a second current application was applied to the 2.5 mAmp-minute group at 10 hours, not only was the caffeine solution added to these skin samples, but it was also placed on the 5 mAmp-minute skins even though these were not treated again with current. This controlled for any skin penetration simply due to the presence of the caffeine solution on the skin. After dosing was completed any remaining caffeine solution was removed from the skin.
Because of the long duration of these studies, dosing was usually initiated at 7:00 am and 6 hours later the first samples were collected for analysis. At T=10 hours (5 pm) a second sample was collected and the 2.5 mAmp-minute group dosed a second time. At T=16 hours (11:00 pm) another sample was collected from the lower reservoir, and at T=24 the final samples were collected.
For this study, the caffeine solution was not removed from skins immediately after dosing but left on the skin for the duration of the experiment.
We conducted dose-response studies to begin to answer this question. For these studies, skins were dosed only once with either 0.6, 1.3, 2.5 or 5 mAmp-minutes with the current held constant at 375 uamps, the maximum output of the Galvanic unit. To each skin 400 microliters of a 1% caffeine in saline solution was applied. In order to minimize evaporation during the study, the caffeine solution was gelled slightly with hydroxyethylcellulose. Six hours after dosing, samples from the lower receptor fluid were collected and analyzed for caffeine.

[5] = cited from earlier work; remark: listed apart in the source

SMILES: NC(=O)NCCC[C@H](N)C(=O)O [Citrulline]
- pKa [1]: 9.4

SMILES: C[N+](C)(C)[C@@H](Cc1c[nH]c(=S)[nH]1)C(=O)[O-] [Thiotaine, Ergothioneine]
- skin penetration to lower chamber reservoir without current ([2]; no current, 24 hours): no compound had penetrated the skin
- relative skin permeability among the compounds studied ([2]; simple buffer systems): least permeable
- levels in the lower reservoir with current ([2]; single dose of 2.5 mAmp×time, 12 and 24 hours): measurable Thiotaine levels in the lower reservoir

SMILES: Cn1c(=O)c2[nH]cnc2n(C)c1=O [aminophylline]
- increase in skin flux [2]: only a modest increase in skin flux
- skin penetration enhancement, FIG. 9A [2]: produced enhanced skin penetration
- skin penetration without current [2]: relatively high skin penetration
- enhancement in skin penetration over control values, extrapolated ([2]; human, 1 %): 23%
- enhancement in skin penetration, extrapolated ([2]; human, 1 %): 9%
- increase in skin penetration ([2]; human, 24 h, 1 %): approximately 1.7 fold
- skin penetration: two treatments of 2.5 mAmp×time versus single 5 mAmp×time pulse ([2]; human, 24 h, 1 %, pH 7): did not equal the skin penetration seen with a single 5 amp×time pulse
- pKa [1]: 5.0

SMILES: Cn1c(=O)c2c(ncn2C)n(C)c1=O [caffeine]
- penetration enhancement of caffeine through the skin ([3]; 1 cycle (360 microamp-minutes)): ineffective in causing any detectable penetration enhancement
- penetration enhancement of caffeine compared to control ([3]; 3 cycles (1080 microamp-minutes), 24 hours): some marginal enhancement of penetration; also recorded: some small enhancement in skin penetration
- penetration enhancement of caffeine through human skin ([3]; 6 cycles (2.2 mAmp-minutes), 24 hours): did enhance delivery of caffeine
- amount of caffeine that had penetrated skin relative to control group ([3]; 12 cycles (4.32 mAmp-minutes), 24 hours, 1% caffeine in saline pH 7.2): 6 times
- time at which increase in skin penetration was detectable ([3]; 12 cycles (4.32 mAmps-min)): ≤ 6 h
- skin penetration: two 2.5 mAmp-minute doses versus one dose [4]: significantly more skin penetration of caffeine than one dose
- increase in the penetration of caffeine ([4]; 2 mAmp-minute dose, 6 hours after treatment): 1.5 fold
- time post-dosing at which penetration enhancement was detectable ([4]; 2.5 and 5 mAmp-minute groups, caffeine removed after dosing): ≤ 6 h
- increase in the amount of caffeine penetrating the skin ([4]; 5 mAmp-minute dose, 6 hours): 3 fold
- amount of caffeine present in the receptor as fraction of applied dose ([4]; 5 mAmp-minute dose, 24 hours): 4 % of applied dose
- time after dosing at which enhanced penetration can be detected ([4]; 5 mAmp-minute dose, caffeine solution left on skin): ≤ 3 h
- increase in the amount of caffeine penetrating the skin ([4]; 10 mAmp-minute dose, 6 hours): 4 fold
- amount of caffeine penetrated: 2.5 mAmp-minute dosed twice versus 5 mAmp-minute dosed once ([4]; 24 hours): no significant difference; also recorded: as much caffeine penetration as a single 5 mAmp-minute dose
- effect of a second 5 mAmp-minute dose versus a single 5 mAmp-minute dose ([4]; 24 hours, caffeine left on skin): no additional accumulation of caffeine; also recorded: does not appear to significantly enhance caffeine skin penetration
- caffeine in the receptor without current ([4]; control skins, no current, 3 hours): no presence of caffeine in the receptor
- time after dosing at which skin penetration enhancement can be detected ([4]; single 2.5 mAmp-minute dose): ≤ 3 h
- skin penetration enhancement ([4]; single dose of 0.6 mAmp-minutes at 375 uamps, 6 hours, gelled 1% caffeine): will enhance skin penetration
- current level above which maximal skin penetration occurs (sigmoidal fit) ([4]; single dose, 6 hours): 3-5 mAmp-minutes
- penetration enhancement of single 2.5 mAmp-minute dose relative to single 5 mAmp-minute dose ([4]; single doses): about 50%

SMILES: CCOC(=O)c1cccnc1 [ethyl nicotinate]
- skin penetration enhancement [2]: enhanced skin penetration
- time after application at which compound is detectable in the lower reservoir fluid ([2]; human, 1 %): ≤ 2 h
- time at which enhanced effect of current is detectable ([2]; human, 1 %): about 4 hour
- amount of compound in the receptor fluid ([2]; human, 24 h, 1 %): over 1000 micrograms

SMILES: Cn1cnc2c1c(=O)[nH]c(=O)n2C [theobromine]
- skin penetration from the solvent used ([2]; pH 12): relatively poorly
- pKa [1]: 9.9
- solubility [5]: virtually insoluble in any solvent except dilute alkali; also recorded: essentially insoluble in any solvent other than alkali
